In PubChem BioAssay AID1963446 (Molecular Pharmacology Branch, DTP, NCI, 2024):

System: 993429-296-R-J1-PDC complex spheroid growth, percent test/control
Assay: Anticancer human tumor 993429-296-R-J1-PDC patient-derived uterine sarcoma cell line growth inhibition [Asc]
Settings: for IC50: curve of first compound; for viability, T/C: stronger effect = lower value
Procedure, shortened: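 Concentration series start at each agent's clinical Cmax, or at 10 microM when none is established, and drop in half-log steps; agents are applied alone or together to complex spheroids built with HUVEC and hMSC.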
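Further: spheroids exposed to compounds for seven days.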

O=C(c1ccc(F)c(F)c1Nc1ccc(I)cc1F)N1CC(O)([C@@H]2CCCCN2)C1 + CCN1C(C(=O)NC23CCC(C(=O)O)(CC2)CC3)C(c2cccc(Cl)c2F)C2(C(=O)Nc3cc(Cl)ccc32)C12CCCCC2
IC50 (second compound 0.03 µM): 42.6 nM | IC50 (second compound 0.0949 µM): 64.6 nM | IC50 (second compound 0.3 µM): 42.4 nM | IC50 (second compound 0.949 µM): 50.1 nM | IC50 (second compound 3 µM): 19.3 nM | viability, T/C (second compound 0.03 µM, first compound 0.00316 µM): 98% | viability, T/C (second compound 0.03 µM, first compound 0.01 µM): 72.2% | viability, T/C (second compound 0.03 µM, first compound 0.0316 µM): 58% | viability, T/C (second compound 0.03 µM, first compound 0.1 µM): 38.7% | viability, T/C (second compound 0.03 µM, first compound 0.316 µM): 8.47% | viability, T/C (second compound 0.03 µM, first compound 1 µM): 1.77% | viability, T/C (second compound 0.0949 µM, first compound 0.00316 µM): 80.2% | viability, T/C (second compound 0.0949 µM, first compound 0.01 µM): 87.7% | viability, T/C (second compound 0.0949 µM, first compound 0.0316 µM): 66% | viability, T/C (second compound 0.0949 µM, first compound 0.1 µM): 39.8% | viability, T/C (second compound 0.0949 µM, first compound 0.316 µM): 8.87% | viability, T/C (second compound 0.0949 µM, first compound 1 µM): 1.19% | viability, T/C (second compound 0.3 µM, first compound 0.00316 µM): 85.8% | viability, T/C (second compound 0.3 µM, first compound 0.01 µM): 74.7% | viability, T/C (second compound 0.3 µM, first compound 0.0316 µM): 61.1% | viability, T/C (second compound 0.3 µM, first compound 0.1 µM): 22.3% | viability, T/C (second compound 0.3 µM, first compound 0.316 µM): 8.15% | viability, T/C (second compound 0.3 µM, first compound 1 µM): 2.9% | viability, T/C (second compound 0.949 µM, first compound 0.00316 µM): 86.8% | viability, T/C (second compound 0.949 µM, first compound 0.01 µM): 67.3% | viability, T/C (second compound 0.949 µM, first compound 0.0316 µM): 66.3% | viability, T/C (second compound 0.949 µM, first compound 0.1 µM): 30.9% | viability, T/C (second compound 0.949 µM, first compound 0.316 µM): 8.19% | viability, T/C (second compound 0.949 µM, first compound 1 µM): 2.6% | viability, T/C (second compound 3 µM, first compound 0.00316 µM): 74.9% | viability, T/C (second compound 3 µM, first compound 0.01 µM): 64.4% | viability, T/C (second compound 3 µM, first compound 0.0316 µM): 38.3% | viability, T/C (second compound 3 µM, first compound 0.1 µM): 20.6% | viability, T/C (second compound 3 µM, first compound 0.316 µM): 5.52% | viability, T/C (second compound 3 µM, first compound 1 µM): 0.67%

Cc1nc(N2CCC3(CC2)COC(C)C3N)c(CO)nc1Sc1ccnc(N)c1Cl (stereo not given) + Cc1c(S(C)(=O)=O)c(-c2cc(F)cc(N3CCN(c4ccc(NS(=O)(=O)c5ccc(NC(CCN6CCC(C(=O)OCCCP(=O)(O)O)CC6)CSc6ccccc6)c(S(=O)(=O)C(F)(F)F)c5)cc4)CC3)c2)c(-c2ccc(Cl)cc2)n1C(C)C
IC50 (second compound 0.1 µM): 80.2 nM | IC50 (second compound 0.316 µM): 30.5 nM | IC50 (second compound 1 µM): 14.6 nM | IC50 (second compound 3.16 µM): < 9.49 nM | IC50 (second compound 10 µM): 98.7 nM | viability, T/C (second compound 0.1 µM, first compound 0.00949 µM): 71.1% | viability, T/C (second compound 0.1 µM, first compound 0.03 µM): 64.3% | viability, T/C (second compound 0.1 µM, first compound 0.0949 µM): 47.2% | viability, T/C (second compound 0.1 µM, first compound 0.3 µM): 29.7% | viability, T/C (second compound 0.1 µM, first compound 0.949 µM): 18.8% | viability, T/C (second compound 0.1 µM, first compound 3 µM): 17.1% | viability, T/C (second compound 0.316 µM, first compound 0.00949 µM): 60.7% | viability, T/C (second compound 0.316 µM, first compound 0.03 µM): 49.3% | viability, T/C (second compound 0.316 µM, first compound 0.0949 µM): 35.7% | viability, T/C (second compound 0.316 µM, first compound 0.3 µM): 21.9% | viability, T/C (second compound 0.316 µM, first compound 0.949 µM): 14.1% | viability, T/C (second compound 0.316 µM, first compound 3 µM): 14.7% | viability, T/C (second compound 1 µM, first compound 0.00949 µM): 52.2% | viability, T/C (second compound 1 µM, first compound 0.03 µM): 46.3% | viability, T/C (second compound 1 µM, first compound 0.0949 µM): 27% | viability, T/C (second compound 1 µM, first compound 0.3 µM): 14.5% | viability, T/C (second compound 1 µM, first compound 0.949 µM): 14.4% | viability, T/C (second compound 1 µM, first compound 3 µM): 10.1% | viability, T/C (second compound 3.16 µM, first compound 0.00949 µM): 34.6% | viability, T/C (second compound 3.16 µM, first compound 0.03 µM): 29.8% | viability, T/C (second compound 3.16 µM, first compound 0.0949 µM): 33.6% | viability, T/C (second compound 3.16 µM, first compound 0.3 µM): 13.2% | viability, T/C (second compound 3.16 µM, first compound 0.949 µM): 10.8% | viability, T/C (second compound 3.16 µM, first compound 3 µM): 8.71% | viability, T/C (second compound 10 µM, first compound 0.00949 µM): 76.7% | viability, T/C (second compound 10 µM, first compound 0.03 µM): 67.5% | viability, T/C (second compound 10 µM, first compound 0.0949 µM): 51.1% | viability, T/C (second compound 10 µM, first compound 0.3 µM): 29.9% | viability, T/C (second compound 10 µM, first compound 0.949 µM): 14.4% | viability, T/C (second compound 10 µM, first compound 3 µM): 13.8%

C=CC(=O)N1CCN(c2nc(=O)n(-c3c(C)ccnc3C(C)C)c3nc(-c4c(O)cccc4F)c(F)cc23)C(C)C1 (stereo not given) + Cc1c(S(C)(=O)=O)c(-c2cc(F)cc(N3CCN(c4ccc(NS(=O)(=O)c5ccc(NC(CCN6CCC(C(=O)OCCCP(=O)(O)O)CC6)CSc6ccccc6)c(S(=O)(=O)C(F)(F)F)c5)cc4)CC3)c2)c(-c2ccc(Cl)cc2)n1C(C)C
IC50 (second compound 0.1 µM): > 10000 nM | IC50 (second compound 0.316 µM): 4920 nM | IC50 (second compound 1 µM): 4340 nM | IC50 (second compound 3.16 µM): 524 nM | IC50 (second compound 10 µM): 5690 nM | viability, T/C (second compound 0.1 µM, first compound 0.0316 µM): 83.5% | viability, T/C (second compound 0.1 µM, first compound 0.1 µM): 81.1% | viability, T/C (second compound 0.1 µM, first compound 0.316 µM): 91.9% | viability, T/C (second compound 0.1 µM, first compound 1 µM): 75.1% | viability, T/C (second compound 0.1 µM, first compound 3.16 µM): 76.5% | viability, T/C (second compound 0.1 µM, first compound 10 µM): 54.6% | viability, T/C (second compound 0.316 µM, first compound 0.0316 µM): 79% | viability, T/C (second compound 0.316 µM, first compound 0.1 µM): 80.6% | viability, T/C (second compound 0.316 µM, first compound 0.316 µM): 69.2% | viability, T/C (second compound 0.316 µM, first compound 1 µM): 75% | viability, T/C (second compound 0.316 µM, first compound 3.16 µM): 62.3% | viability, T/C (second compound 0.316 µM, first compound 10 µM): 30.5% | viability, T/C (second compound 1 µM, first compound 0.0316 µM): 62.9% | viability, T/C (second compound 1 µM, first compound 0.1 µM): 53.5% | viability, T/C (second compound 1 µM, first compound 0.316 µM): 76.8% | viability, T/C (second compound 1 µM, first compound 1 µM): 62.1% | viability, T/C (second compound 1 µM, first compound 3.16 µM): 47.3% | viability, T/C (second compound 1 µM, first compound 10 µM): 41.8% | viability, T/C (second compound 3.16 µM, first compound 0.0316 µM): 51.1% | viability, T/C (second compound 3.16 µM, first compound 0.1 µM): 59.9% | viability, T/C (second compound 3.16 µM, first compound 0.316 µM): 54.4% | viability, T/C (second compound 3.16 µM, first compound 1 µM): 43.8% | viability, T/C (second compound 3.16 µM, first compound 3.16 µM): 34.9% | viability, T/C (second compound 3.16 µM, first compound 10 µM): 45.9% | viability, T/C (second compound 10 µM, first compound 0.0316 µM): 106% | viability, T/C (second compound 10 µM, first compound 0.1 µM): 81% | viability, T/C (second compound 10 µM, first compound 0.316 µM): 86.6% | viability, T/C (second compound 10 µM, first compound 1 µM): 86.1% | viability, T/C (second compound 10 µM, first compound 3.16 µM): 64.7% | viability, T/C (second compound 10 µM, first compound 10 µM): 34.9%
